Results from publication PMC8301783, “Pitfalls of NMDA Receptor Modulation by Neuroactive Steroids. The Effect of Positive and Negative Modulation of NMDA Receptors in an Animal Model of Schizophrenia” (Biomolecules, 2021).

Target: T1, GABAA receptor (GABAAR)
T1 construct: native receptors in rat cerebral cortex membrane homogenates
Test: […]TBPS radioligand displacement, rat cortex membranes
Type: binding

Compound CC(=O)[C@H]1CC[C@H]2[C@@H]3CC[C@@H]4C[C@H](OC(=O)[C@@H](N)CCC(=O)O)CC[C@]4(C)[C@H]3CC[C@]12C [PA-Glu, pregnanolone glutamate] has an IC50 of 7.5 µM.
